From ChEMBL document CHEMBL1158045, “Phenolic constituents of the roots of Sophora flavescens” (J Nat Prod, 2006)
Converted amounts (≈) assume the structure as drawn.

test system: KB; test: Cytotoxicity against human KB cells; type: functional, cell-based

Structure (SMILES) | IC50 [µg/mL]
COc1cc2c(c(O)c1C(=O)/C=C/c1ccc(O)cc1O)CC(CC=C(C)C)C(C)(C)O2 (stereo not given) [CYCLOKURARIDIN] | 15.1 (≈ 34.4 µM)
CC(C)=CCc1cc(-c2cc3cc4c(cc3o2)OCO4)c(O)cc1O | 8 (≈ 23.6 µM)
C=C(C)C(CC=C(C)C)Cc1c(O)cc(O)c2c(=O)c(O)c(-c3ccc(O)cc3)oc12 (stereo not given) | 24.3 (≈ 57.5 µM)
C=C(C)C(CC=C(C)C)Cc1c(O)cc(OC)c(C(=O)C(=O)c2ccc(O)cc2O)c1O (stereo not given) [SOPHORADIONE] | 29.4 (≈ 66.7 µM)
CC(C)=CCOc1cc(O)c2c(c1CC=C(C)C)OC(c1ccc(O)cc1O)CC2=O (stereo not given) [SOPHORAFLAVANONE L] | 7.1 (≈ 16.7 µM)
